Measurements taken from US20230127046A1, “G9a INHIBITOR” (RIKEN, priority 2019, published 2023).
pIC50: −log10 of the molar value.

Tests used:
[1] = molecular target: T1, recombinant human G9a protein (Homo sapiens, UniProt Q96KQ7); experiment: G9a inhibitory activity test (ALPHA); assay type: biochemical; settings: read-out: Inhibitory activity (G9a IC50)
T1 construct: purchased BPS Bioscience Inc. #51001
T1 sequence (Q96KQ7 785-1210 limits assumed): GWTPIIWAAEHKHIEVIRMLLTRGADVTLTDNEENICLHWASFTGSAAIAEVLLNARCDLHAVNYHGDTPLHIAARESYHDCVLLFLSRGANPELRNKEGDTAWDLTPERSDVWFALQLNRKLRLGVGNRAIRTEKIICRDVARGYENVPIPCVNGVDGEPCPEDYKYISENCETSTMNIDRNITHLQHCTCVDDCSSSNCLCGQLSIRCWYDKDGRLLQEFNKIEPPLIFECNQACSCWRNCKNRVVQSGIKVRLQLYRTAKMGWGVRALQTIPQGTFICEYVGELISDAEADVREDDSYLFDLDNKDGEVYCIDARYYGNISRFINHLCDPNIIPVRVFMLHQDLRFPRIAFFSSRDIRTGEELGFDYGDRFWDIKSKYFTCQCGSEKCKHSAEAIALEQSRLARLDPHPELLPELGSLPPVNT
Procedure, shortened: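 Human G9a (0.05 to 0.1 nM) in Tris pH 9.0 buffer preincubated with compound 10 min, then biotinylated histone H3 (1-21) peptide and SAM mixed 1:1 from 500 nM and 150 μM solutions, 1 h at room temperature. H3K9me2 detected by AlphaLISA acceptor/streptavidin donor beads; IC50 from percent inhibition relative to no-compound and no-enzyme controls.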

[2] = test system: human lung cancer cell line NCI-H460; experiment: Colony formation inhibition test; assay type: cell-based; settings: 288 h, NCI-H460 cells, culture for 12 days, read-out: Inhibitory activity (colony formation GI50)
Procedure: Each compound was evaluated for its colony formation inhibitory activity against a human lung cancer cell line NCI-H460. The NCI-H460 cells were cultured in a DMEM medium (FUJIFILM Wako Pure Chemical Corp., 044-29765) containing 10% fetal bovine serum and 4 mM glutamine. The cultured cells were washed with PBS, then detached with trypsin/EDTA, and adjusted to 2×10^3 cells/mL to prepare a cell suspension. The cell suspension was inoculated at 1 mL/well to a 12-well microplate (Corning Inc., 3513), and the test compound (DMSO solution) was added at 1 μL/well, followed by culture for 12 days under conditions of 37° C. and 5% CO2. DMSO was added at 1 μL/well to control wells with a final DMSO concentration set to 0.1%. The medium was discarded every day or every two days, and a fresh medium was added at 1 mL/well. The test compound or DMSO was added at 1 μL/well. The proportion of a colony of each well was measured using a high-speed cell imaging system (Tomy Digital Biology Co., Ltd., Celigo). The ratio of the colony in each compound-supplemented group was determined with the ratio of the colony formed in a test compound solution-unsupplemented well defined as 1. A compound concentration necessary for suppressing the rate of colony formation by 50% of the control (GI50) was calculated using data analysis software Origin (LightStone Crop.).

[3] = test system: intracellular histone H3K9 dimethylation level in human lung cancer cell line NCI-H460; experiment: Histone H3K9 dimethylation inhibitory activity test (Western blotting); assay type: cell-based; settings: NCI-H460 cells, 72 hours
Procedure: The inhibitory activity of each compound against G9a was evaluated by adding the compound to a human lung cancer cell line NCI-H460, and detecting change in intracellular histone H3K9 dimethylation level by Western blotting. The NCI-H460 cells were cultured in a DMEM medium (FUJIFILM Wako Pure Chemical Corp., 044-29765) containing 10% fetal bovine serum and 4 mM glutamine. The cultured cells were washed with PBS and then detached with trypsin/EDTA, and the cell suspension was adjusted to 2.5×10^4 cells/mL. The cell suspension was inoculated at 500 μL/well to a 24-well microplate (Thermo Fisher Scientific, Inc., 142475) and cultured overnight under conditions of 37° C. and 5% CO2. On the next day, the test compound (solution in DMSO) was added at 0.5 µL/well and reacted for 72 hours under conditions of 37° C. and 5% CO2. DMSO was added at 0.5 μL/well to control wells (final DMSO concentration: 0.1%). The medium was removed, and the cells were washed with PBS. Then, a 2×SDS-PAGE sample buffer (100 mM Tris-HCl (pH 6.8), 4% sodium lauryl sulfate, 2% 2-mercaptoethanol, 20% glycerol, 0.005% bromophenol blue) was added at 50 μL/well to prepare a sample. The recovered sample was heated at 95 to 100° C. for 10 minutes, and protein was separated by polyacrylamide gel electrophoresis (SDS-PAGE). Subsequently, the separated protein was transferred to a polyvinylidene fluoride (PVDF) membrane by semi-dry blotting. The PVDF membrane was dipped in 3% skimmed milk (dissolved in PBS containing 0.05% Tween 20 (PBST)), blocked at room temperature for 30 to 60 minutes, then dipped in an anti-dimethylated histone H3K9 antibody (Abcam plc, ab1220) diluted 1000-fold with 3% skimmed milk, and reacted overnight at 4° C. On the next day, the PVDF membrane was washed three times with PBST, then dipped in a HRP (horseradish peroxidase)-labeled anti-mouse IgG antibody diluted 10000-fold with skimmed milk, and reacted at room temperature for 1 hour. The PVDF membrane was washed three times with PBST, then dipped in chemiluminescent substrate solution Immobilon Western Chemiluminescent HRP Substrate (Merck Millipore, WBKLS0500), incubated at room temperature for 5 minutes, and photographed with Lumino Image Analyzer (GE Healthcare Japan Corp., ImageQuant LAS4000).
Then, the antibody was stripped from the PVDF membrane using re-probe reagent EzReprobe (ATTO Corp., WSE-7240), and trimethylated histone H3K9 and histone H3 were detected by the same procedures as above. An anti-trimethyl histone H3K9 antibody (39161, diluted 1000-fold) from Active Motif, Inc. and an anti-histone H3 antibody (ab1791, diluted 2000-fold) from Abcam plc were used in the detection. The band of each protein was quantified from the taken image using image processing software ImageJ (NIH). The ratios of dimethylated histone H3K9 and trimethylated histone H3K9 to the histone H3 protein were calculated with the numeric value of a compound-unsupplemented sample defined as 100%. A compound concentration at which the ratio of dimethylated histone H3K9 was 50% was calculated as a 50% inhibition concentration (IC50 value) using data analysis software Origin (LightStone Corp.).

Compound: COc1ccc(NC(=O)C(CCC2CC2)NC(=O)c2ccc(Nc3ccncc3)cc2C)cn1 (stereo not drawn) [Example 6-51]
- pIC50 [1]: > 7.30
- GI50 [2]: < 500 nM
- pIC50 [3]: 6.30 to 7.30

Compound: CCCC[C@H](NC(=O)c1[nH]c2c(c1C)C(=O)CC(C)(C)C2)C(=O)Nc1ccc(OC2CCN(C)CC2)cc1 [Example 6-32]
- pIC50 [1]: > 7.30
- GI50 [2]: < 500 nM
- pIC50 [3]: > 7.30

Compound: COc1ccc(NC(=O)C(CCC2CC2)NC(=O)c2ccc(N(C)c3ccncc3)cc2)cn1 (stereo not drawn) [Example 6-55]
- pIC50 [1]: > 7.30
- GI50 [2]: < 500 nM
- pIC50 [3]: 6.30 to 7.30
